# From ChEMBL document CHEMBL5120927, “LEGO-Lipophosphonoxins: A Novel Approach in Designing Membrane Targeting Antimicrobials” (J Med Chem, 2022)
# Legend:
# Enterococcus faecalis = experiment: Antibacterial activity against Enterococcus faecalis ATCC 29212 = CCM 4224 assessed as inhibition of bacterial growth incubated for 24 hrs by microdilution assay; format: functional
# Staphylococcus aureus [1] = experiment: Antibacterial activity against Staphylococcus aureus ATCC 29213 = CCM 4223 assessed as inhibition of bacterial growth incubated for 24 hrs by microdilution assay; format: functional
# Staphylococcus aureus [2] = experiment: Antibacterial activity against Staphylococcus aureus ATCC 29213 = CCM 4223 assessed as inhibition of bacterial growth incubated for 24 hrs in presence of BSA by microdilution assay; format: functional
# Escherichia coli [3] = experiment: Antibacterial activity against Escherichia coli ATCC 25922 = CCM 3954 assessed as inhibition of bacterial growth incubated for 24 hrs by microdilution assay; format: functional
# Escherichia coli [4] = experiment: Antibacterial activity against Escherichia coli ATCC 25922 = CCM 3954 assessed as inhibition of bacterial growth incubated for 24 hrs in presence of BSA by microdilution assay; format: functional
# Pseudomonas aeruginosa [5] = experiment: Antibacterial activity against Pseudomonas aeruginosa ATCC 27853 = CCM 3955 assessed as inhibition of bacterial growth incubated for 24 hrs by microdilution assay; format: functional
# [6] = Hemolytic activity in human RBC assessed as haemoglobin release measured after 3 hr; format: toxicity, cell-based, Erythrocyte; conditions: red blood cells (erythrocytes)
# [7] = Gradient chromatographic hydrophobicity index of the compound at pH 3.7 by HPLC analysis; format: ADME
# [8] = system: Staphylococcus epidermidis; experiment: Antibacterial activity against Staphylococcus epidermidis CCM 7221 assessed as inhibition of bacterial growth incubated for 24 hrs by microdilution assay; format: functional
# Staphylococcus aureus [9] = experiment: Antibacterial activity against methicillin resistant Staphylococcus aureus 4591/A assessed as reduction in microbial growth incubated for 24 hrs by microdilution assay; format: functional
# Escherichia coli [10] = experiment: Antibacterial activity against multidrug-resistant Escherichia coli CE5556 expressing CTX-M-15 assessed as reduction in microbial growth incubated for 24 hrs by microdilution assay; format: functional
# Enterococcus faecium = experiment: Antibacterial activity against vancomycin resistant Enterococcus faecium 419/ANA assessed as reduction in microbial growth incubated for 24 hrs by microdilution assay; format: functional
# Pseudomonas aeruginosa [11] = experiment: Antibacterial activity against multidrug-resistant Pseudomonas aeruginosa assessed as reduction in microbial growth incubated for 24 hrs by microdilution assay; format: functional
SMILES,MIC (Enterococcus faecalis),MIC (Staphylococcus aureus [1]),MIC (Staphylococcus aureus [2]),MIC (Escherichia coli [3]),MIC (Escherichia coli [4]),MIC (Pseudomonas aeruginosa [5]),HC50 at 3 h [6],CHI [7],MIC [8],MIC (Staphylococcus aureus [9]),MIC (Escherichia coli [10]),MIC (Enterococcus faecium),MIC (Pseudomonas aeruginosa [11])
CCCCC/C=C\CCCOP(=O)(CCN(CCCN)CCCN)OCCCCCCOP(=O)(CCN(CCCN)CCCN)OCCC/C=C\CCCCC.Cl.Cl.Cl.Cl.Cl.Cl (configuration not stated),1 µg/mL,0.5 µg/mL,1 µg/mL,0.5 µg/mL,1 µg/mL,2 µg/mL,43 µg/mL,40.6,0.5 µg/mL,0.5 µg/mL,1 µg/mL,2 µg/mL,2 µg/mL
Cl.Cl.Cl.Cl.Cl.Cl.NCCCN(CCCN)CCP(=O)(OCCCOP(=O)(CCN(CCCN)CCCN)OCC1CCCC1)OCC1CCCC1 (configuration not stated),> 128 µg/mL,> 128 µg/mL,> 128 µg/mL,> 128 µg/mL,> 128 µg/mL,> 128 µg/mL,> 1000 µg/mL,5,> 128 µg/mL,> 128 µg/mL,> 128 µg/mL,> 128 µg/mL,> 128 µg/mL
Cl.Cl.Cl.Cl.Cl.Cl.NCCCN(CCCN)CCP(=O)(OCCCCCCCCOP(=O)(CCN(CCCN)CCCN)OCCc1ccccc1)OCCc1ccccc1 (configuration not stated),128 µg/mL,16 µg/mL,32 µg/mL,128 µg/mL,128 µg/mL,128 µg/mL,> 200 µg/mL,27.3,8 µg/mL,16 µg/mL,128 µg/mL,128 µg/mL,128 µg/mL
Cl.Cl.Cl.Cl.Cl.Cl.NCCCN(CCCN)CCP(=O)(OCCCCCCOP(=O)(CCN(CCCN)CCCN)OCCCC1CCCCC1)OCCCC1CCCCC1 (configuration not stated),2 µg/mL,1 µg/mL,1 µg/mL,1 µg/mL,0.5 µg/mL,4 µg/mL,183 µg/mL,36.4,0.5 µg/mL,1 µg/mL,1 µg/mL,16 µg/mL,4 µg/mL
Cl.Cl.Cl.Cl.Cl.Cl.NCCN(CCN)CCP(=O)(OCCCCCCOP(=O)(CCN(CCN)CCN)OCCc1ccccc1)OCCc1ccccc1 (configuration not stated),> 128 µg/mL,32 µg/mL,128 µg/mL,> 128 µg/mL,> 128 µg/mL,> 128 µg/mL,> 200 µg/mL,30.9,16 µg/mL,64 µg/mL,> 128 µg/mL,> 128 µg/mL,> 128 µg/mL
CCCCCCCCOP(=O)(CCN(CCCN)CCCN)OCCCOP(=O)(CCN(CCCN)CCCN)OCCCCCCCC.Cl.Cl.Cl.Cl.Cl.Cl (configuration not stated),8 µg/mL,2 µg/mL,2 µg/mL,2 µg/mL,4 µg/mL,16 µg/mL,> 500 µg/mL,35.5,2 µg/mL,2 µg/mL,4 µg/mL,64 µg/mL,8 µg/mL
CCCC/C=C\CCOP(=O)(CCN(CCCNC(=N)N)CCCNC(=N)N)OCCCCCCOP(=O)(CCN(CCCNC(=N)N)CCCNC(=N)N)OCC/C=C\CCCC.Cl.Cl.Cl.Cl.Cl.Cl (configuration not stated),8 µg/mL,1 µg/mL,0.2 µg/mL,4 µg/mL,0.5 µg/mL,16 µg/mL,169 µg/mL,333,1 µg/mL,1 µg/mL,2 µg/mL,32 µg/mL,16 µg/mL
CCCCCCOP(=O)(CCN(CCCN)CCCN)OCCCCCCOP(=O)(CCN(CCCN)CCCN)OCCCCCC.Cl.Cl.Cl.Cl.Cl.Cl (configuration not stated),> 128 µg/mL,8 µg/mL,16 µg/mL,32 µg/mL,64 µg/mL,> 128 µg/mL,634 µg/mL,28.7,4 µg/mL,16 µg/mL,128 µg/mL,> 128 µg/mL,> 128 µg/mL
CCCCCCOP(=O)(CCN(CCCN)CCCN)OCCCCCCCCCCCCCCOP(=O)(CCN(CCCN)CCCN)OCCCCCC.Cl.Cl.Cl.Cl.Cl.Cl (configuration not stated),1 µg/mL,–,–,1 µg/mL,–,2 µg/mL,–,40.6,0.5 µg/mL,1 µg/mL,1 µg/mL,2 µg/mL,–
CCC/C=C\CCOP(=O)(CCN(CCCN)CCCN)OCCCCCCCCOP(=O)(CCN(CCCN)CCCN)OCC/C=C\CCC.Cl.Cl.Cl.Cl.Cl.Cl (configuration not stated),64 µg/mL,8 µg/mL,8 µg/mL,1 µg/mL,64 µg/mL,128 µg/mL,> 200 µg/mL,32.8,2 µg/mL,4 µg/mL,16 µg/mL,> 128 µg/mL,128 µg/mL
CCCCC/C=C\CCOP(=O)(CCN(CCCN)CCCN)OCCCOP(=O)(CCN(CCCN)CCCN)OCC/C=C\CCCCC.Cl.Cl.Cl.Cl.Cl.Cl (configuration not stated),8 µg/mL,2 µg/mL,4 µg/mL,2 µg/mL,4 µg/mL,8 µg/mL,> 500 µg/mL,36.2,2 µg/mL,2 µg/mL,4 µg/mL,64 µg/mL,4 µg/mL
CCCCCCOP(=O)(CCN(CCCN)CCCN)OCCCCCCCCCCCCOP(=O)(CCN(CCCN)CCCN)OCCCCCC.Cl.Cl.Cl.Cl.Cl.Cl (configuration not stated),0.5 µg/mL,–,–,1 µg/mL,–,2 µg/mL,–,37.7,0.125 µg/mL,0.5 µg/mL,2 µg/mL,2 µg/mL,–
CC(C)COP(=O)(CCN(CCCN)CCCN)OCCCCCCCCCCOP(=O)(CCN(CCCN)CCCN)OCC(C)C.Cl.Cl.Cl.Cl.Cl.Cl (configuration not stated),64 µg/mL,32 µg/mL,16 µg/mL,> 128 µg/mL,> 128 µg/mL,128 µg/mL,> 500 µg/mL,35,8 µg/mL,16 µg/mL,128 µg/mL,128 µg/mL,64 µg/mL
CCCCOP(=O)(CCN(CCCN)CCCN)OCCCCCCCCCCCCOP(=O)(CCN(CCCN)CCCN)OCCCC.Cl.Cl.Cl.Cl.Cl.Cl (configuration not stated),32 µg/mL,4 µg/mL,16 µg/mL,128 µg/mL,128 µg/mL,32 µg/mL,> 500 µg/mL,31.4,1 µg/mL,4 µg/mL,> 128 µg/mL,> 128 µg/mL,16 µg/mL
CC(C)COP(=O)(CCN(CCCN)CCCN)OCCCCCCCCOP(=O)(CCN(CCCN)CCCN)OCC(C)C.Cl.Cl.Cl.Cl.Cl.Cl (configuration not stated),> 128 µg/mL,> 128 µg/mL,> 128 µg/mL,> 128 µg/mL,> 128 µg/mL,> 128 µg/mL,> 1000 µg/mL,25.2,32 µg/mL,> 128 µg/mL,> 128 µg/mL,> 128 µg/mL,> 128 µg/mL
CCCCOP(=O)(CCN(CCCN)CCCN)OCCCCCCCCCCCCCCOP(=O)(CCN(CCCN)CCCN)OCCCC.Cl.Cl.Cl.Cl.Cl.Cl (configuration not stated),4 µg/mL,–,–,16 µg/mL,–,4 µg/mL,–,35.2,0.5 µg/mL,2 µg/mL,32 µg/mL,16 µg/mL,–
CCCC/C=C\CCOP(=O)(CCN(CCN)CCN)OCCCCCCOP(=O)(CCN(CCN)CCN)OCC/C=C\CCCC.Cl.Cl.Cl.Cl.Cl.Cl (configuration not stated),4 µg/mL,1 µg/mL,2 µg/mL,1 µg/mL,2 µg/mL,16 µg/mL,254 µg/mL,40.1,0.5 µg/mL,1 µg/mL,2 µg/mL,32 µg/mL,8 µg/mL
CCCCCOP(=O)(CCN(CCCN)CCCN)OCCCCCCCCCCCCOP(=O)(CCN(CCCN)CCCN)OCCCCC.Cl.Cl.Cl.Cl.Cl.Cl (configuration not stated),2 µg/mL,–,8 µg/mL,16 µg/mL,16 µg/mL,4 µg/mL,444 µg/mL,34.7,0.5 µg/mL,1 µg/mL,32 µg/mL,16 µg/mL,4 µg/mL
CCCCCCCCOP(=O)(CCN(CCCN)CCCN)OCCCCCCCCCCCCOP(=O)(CCN(CCCN)CCCN)OCCCCCCCC.Cl.Cl.Cl.Cl.Cl.Cl (configuration not stated),1 µg/mL,–,–,1 µg/mL,–,2 µg/mL,–,432,0.5 µg/mL,1 µg/mL,1 µg/mL,1 µg/mL,–
CC(C)COP(=O)(CCN(CCCN)CCCN)OCCCCCCCCCCCCCCOP(=O)(CCN(CCCN)CCCN)OCC(C)C.Cl.Cl.Cl.Cl.Cl.Cl (configuration not stated),4 µg/mL,–,–,16 µg/mL,–,4 µg/mL,–,27.3,0.5 µg/mL,4 µg/mL,16 µg/mL,16 µg/mL,–
CCCCCOP(=O)(CCN(CCCN)CCCN)OCCCCCCCCCCCCCCOP(=O)(CCN(CCCN)CCCN)OCCCCC.Cl.Cl.Cl.Cl.Cl.Cl (configuration not stated),1 µg/mL,–,–,2 µg/mL,–,4 µg/mL,–,38.1,0.5 µg/mL,1 µg/mL,2 µg/mL,2 µg/mL,–
